We go through 5 compounds from patent US20250295583A1, “INHALED HEDGEHOG INHIBITORS” (WBX PHARMA, INC., priority 2024, published 2025).

Where “and” joins values, the source holds several entries; their conditions need not be identical. Equal entries are not always repeated.

The format of data set [1] is physicochemical. The method, then:
Four dry powder formulations were developed using spray drying with two being acceptable for human use. […] The selected bulking agents were mannitol or trehalose with dispersibility enhancer: L-leucine (˜0.55 wt % solubility limit in 50:50 EtOH: water). Two mannitol formulations and two trehalose formulations with different amounts of L-leucine 10% and 26% were made using a BLD-35 spray dryer. The tested dose was 10 mg of the formulation in a Berry RSO1 high resistance inhaler.

Data set [2] deals with IPF. The settings on record: given orally alone as a monotherapy; cited from earlier work.
For data set [3] the following is noted: cited from earlier work.
Data set [4] has as its system IPF patients. Particulars: 21 IPF patients, cited from earlier work; for patients who discontinued the drug: combination trial of vismodegib plus pirfenidone.
For data set [5] the following is noted: cited from earlier work. The source holds these as a separate data set.
For data set [6] the following is noted: cited from earlier work. The source holds these as a separate data set.
A short description of data set [7]: Estimate of epithelial lining fluid (ELF) concentration after inhaled delivery, from pirfenidone data. Also noted: species or system human. The settings on record: for predicted ELF concentration adjusted for 200 μg delivery: inhaled dry powder, 200 μg delivered; for predicted ELF molar concentration if 45 mg delivered: inhaled, extrapolated from pirfenidone data. The method, then: The physical delivery of any drug by the inhalation route may be estimated by data generated in the delivery of inhaled pirfenidone.
Again, since delivery is just a physical process, one can estimate ELF concentrations for 200 μg of taladegib delivered as noted above based on pirfenidone data.

For data set [8], the system named is subjects with mild to moderate IPF. The settings on record: cited from earlier work.
The nature of data set [9]: Estimate of systemic exposure after inhaled dosing versus oral dose. Also noted: species or system human.
Description: This would be about 6 half-lives. Depending on the half-life in the epithelial lining fluid, one to six inhalations a day would provide adequate inhibition of hedgehog receptors. At the highest dose frequency (6 inhalations/day), the total delivered dose would approximate 3.6 mg.
The nature of data set [10]: Published pharmacokinetics of oral vismodegib. Format: in vivo, human. Particulars: once daily oral therapy. An excerpt: Only unbound drug can freely cross the alveolar epithelial barrier.
Data set [11] is described as follows: Accumulation factor calculation at steady state. Particulars: half-life 3 days, dosing interval 1 day, first-order kinetics. An excerpt:
This calculation assumes the API is being administered in a clinically effective formulation as disclosed herein, at regular intervals, and that the pharmacokinetics of the candidate compound follow first-order kinetics where the rate of drug elimination is proportional to its concentration. To calculate the multiple of the initial drug concentration at steady state (known as the “accumulation factor”), the formula:
Substitute into the formula: With τ=1 day: AF=1/(1−e^(−0.231*1))≈1/(1−e^(−0.231)).
Evaluate the exponential: e^(−0.231)≈0.794.

The conditions of data set [12]: 150 mg daily oral dose, cited from earlier work.

In the case of `CC(C)C[C@H](N)C(=O)O` [L-leucine], the “solubility limit in 50:50 EtOH: water” value in data set [1] is listed as approximately 0.55 wt %.
For `COC(=O)c1ccc2c(c1)NC(=O)/C2=C(\Nc1ccc(N(C)C(=O)CN2CCN(C)CC2)cc1)c1ccccc1` [nintedanib], the “slowing of the progression of the disease” value in [2] was “about 50%”.
`Cc1ccc(=O)n(-c2ccccc2)c1` [pirfenidone]: the “slowing of the progression of the disease” value in data set [2] was “about 50%”. In addition, the “amount delivered to the lung” value in data set [3] (100 mg dose in the nebulizer, 24 hour urine analysis) is listed as 45 mg. The “epithelial lining fluid concentration” value in data set [3] (aerosolized, normal volunteers, average) was 135 µg/mL. Moreover, the “patients who discontinued the drug” value in [4] is given as 33.3%.
For the compound `CN(C(=O)c1ccc(F)cc1C(F)(F)F)C1CCN(c2nnc(-c3ccnn3C)c3ccccc23)CC1` [taladegib, Taladegib], the “mean concentration at steady state” value in data set [5] (200 mg daily oral dose) is reported as “about 0.8 μmol/L”. Besides, the absorption entry in data set [5] (200 mg oral dose) is on record as “approximately 30%”. In [6], the plasma protein bound is listed as 95%. In addition, in data set [7] (200 μg inhaled delivered dose), the “ELF concentration versus that achieved by 200 mg oral dose of taladegib (unbound)” value is “≈ 29 fold and > 29 fold”. Also, in [7], the “predicted ELF concentration adjusted for 200 μg delivery” value is 1.16 µmol/L and the “predicted ELF molar concentration if 45 mg delivered” value is 264 µmol/L. In data set [8] (oral taladegib group), the alopecia is reported as 52%, the dysgeusia is reported as 57% and the muscle spasms was 43%. In [8] (oral taladegib versus slight increase in placebo group), the “lung fibrosis by high resolution CT scan” value is “decreased lung fibrosis”. Also, the “improvement in FVC” value in data set [8] (oral taladegib, at 12 weeks, on average, placebo 1.3% loss (p=0.035)) is 1.9%. For the same compound, the “systemic exposure/absorption relative to the oral dose” value in data set [9] (six inhalations a day, total 3.6 mg) was “less than 10%”.
With `CS(=O)(=O)c1ccc(C(=O)Nc2ccc(Cl)c(-c3ccccn3)c2)c(Cl)c1` [vismodegib, Vismodegib], the “plasma concentration nadir, of the peak” value in data set [10] was “about 80%”. Further, in [6], the plasma protein bound is listed as 98%. For the same compound, the “plasma protein binding, in words” value in data set [6] (to albumin and alpha-1 acid glycoprotein) was “highly protein-bound”. In data set [7], the “predicted ELF concentration adjusted for 200 μg delivery” value was 1.71 µmol/L and the “predicted ELF molar concentration if 45 mg delivered” value was 388 µmol/L. The “accumulation factor, steady state concentration versus after the first dose” value in [11] is reported as “about 4.85 times”. For the same compound, the “amount dissolved in 50:50 EtOH: water (wt/wt) solution” value in [1] (50:50 EtOH: water (wt/wt)) worked out at 4%. Besides, the mean unbound concentration in data set [12] (steady state) is 0.109 ± 0.058 µmol/L. Also, the “peak plasma concentration at steady state” value in data set [12] was 22.6 ± 10.8 µmol/L. The “patients who discontinued the drug” value in data set [4] is 42.9%. Moreover, in [4] (vismodegib 150 mg daily plus pirfenidone 801 mg three times daily, 24 weeks, on average), the “lung function and shortness of breath” value is recorded as “improved”. Moreover, the “patients reporting at least one treatment-emergent adverse event” value in data set [4] (vismodegib 150 mg daily plus pirfenidone, 24 weeks) is “all patients”. The total systemic exposure in [9] (six administrations a day of a 30 mg capsule (delivered dose 600 μg each)) was 3.6 mg.
